{
  "source": "PubChem BioAssay (NCI)",
  "test_in_all_cases": "inhibition of tumour cell growth, NCI panel, 48 h",
  "key": {"HS 578T breast": {"test_system": "HS 578T breast"}, "NCI-H226 lung": {"test_system": "NCI-H226 lung"}, "OVCAR-5 ovarian": {"test_system": "OVCAR-5 ovarian"}, "SN12C renal": {"test_system": "SN12C renal"}, "KM12 colon": {"test_system": "KM12 colon"}, "NCI-H460 lung": {"test_system": "NCI-H460 lung"}, "RXF 393 renal": {"test_system": "RXF 393 renal"}, "SK-OV-3 ovarian": {"test_system": "SK-OV-3 ovarian"}, "OVCAR-3 ovarian": {"test_system": "OVCAR-3 ovarian"}, "RPMI-8226 leukemia": {"test_system": "RPMI-8226 leukemia"}, "UACC-257 melanoma": {"test_system": "UACC-257 melanoma"}, "MOLT-4 leukemia": {"test_system": "MOLT-4 leukemia"}, "SK-MEL-28 melanoma": {"test_system": "SK-MEL-28 melanoma"}, "LOX IMVI melanoma": {"test_system": "LOX IMVI melanoma"}, "HCT-116 colon": {"test_system": "HCT-116 colon"}, "SR leukemia": {"test_system": "SR leukemia"}, "UO-31 renal": {"test_system": "UO-31 renal"}, "A549 NSCLC": {"test_system": "A549 NSCLC"}, "HOP-62 NSCLC": {"test_system": "HOP-62 NSCLC"}, "MDA-MB-231 breast": {"test_system": "MDA-MB-231 breast"}, "NCI-H23 lung": {"test_system": "NCI-H23 lung"}, "SNB-19 CNS": {"test_system": "SNB-19 CNS"}, "PC-3 prostate": {"test_system": "PC-3 prostate"}, "UACC-62 melanoma": {"test_system": "UACC-62 melanoma"}, "MALME-3M melanoma": {"test_system": "MALME-3M melanoma"}, "OVCAR-8 ovarian": {"test_system": "OVCAR-8 ovarian"}, "786-0 renal": {"test_system": "786-0 renal"}, "OVCAR-4 ovarian": {"test_system": "OVCAR-4 ovarian"}},
  "note": "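Protocol summary: plate cells (96-well), add compound at 5 concentrations, incubate 48 h, interpolate endpoints linearly. The concentration for 50% growth inhibition is given as GI50. Definition used: TGI = concentration required for complete inhibition of growth.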",
  "data": [
    {"smiles": "O=CNc1ccc2c(c1)Cc1cc([N+](=O)[O-])ccc1-2", "values": [
      {"measurement": "GI50", "setting": "HS 578T breast", "value": 1.23, "unit": "µM"},
      {"measurement": "TGI", "setting": "HS 578T breast", "value": 5.16, "unit": "µM"},
      {"measurement": "GI50", "setting": "NCI-H226 lung", "value": 27.7, "unit": "µM"},
      {"measurement": "TGI", "setting": "NCI-H226 lung", "value": "> 100", "unit": "µM"},
      {"measurement": "GI50", "setting": "OVCAR-5 ovarian", "value": 4.2, "unit": "µM"},
      {"measurement": "TGI", "setting": "OVCAR-5 ovarian", "value": "> 100", "unit": "µM"},
      {"measurement": "GI50", "setting": "SN12C renal", "value": "> 26.2", "unit": "µM"},
      {"measurement": "TGI", "setting": "SN12C renal", "value": "> 100", "unit": "µM"},
      {"measurement": "GI50", "setting": "KM12 colon", "value": 0.715, "unit": "µM"},
      {"measurement": "TGI", "setting": "KM12 colon", "value": "> 100", "unit": "µM"},
      {"measurement": "GI50", "setting": "NCI-H460 lung", "value": 2.78, "unit": "µM"},
      {"measurement": "TGI", "setting": "NCI-H460 lung", "value": "> 60.3", "unit": "µM"},
      {"measurement": "GI50", "setting": "RXF 393 renal", "value": 2.33, "unit": "µM"},
      {"measurement": "TGI", "setting": "RXF 393 renal", "value": "> 100", "unit": "µM"},
      {"measurement": "GI50", "setting": "SK-OV-3 ovarian", "value": 4.39, "unit": "µM"},
      {"measurement": "TGI", "setting": "SK-OV-3 ovarian", "value": 27.4, "unit": "µM"},
      {"measurement": "GI50", "setting": "OVCAR-3 ovarian", "value": 1.56, "unit": "µM"},
      {"measurement": "TGI", "setting": "OVCAR-3 ovarian", "value": "> 100", "unit": "µM"},
      {"measurement": "GI50", "setting": "RPMI-8226 leukemia", "value": "> 100", "unit": "µM"},
      {"measurement": "TGI", "setting": "RPMI-8226 leukemia", "value": "> 100", "unit": "µM"},
      {"measurement": "GI50", "setting": "UACC-257 melanoma", "value": 5.39, "unit": "µM"},
      {"measurement": "TGI", "setting": "UACC-257 melanoma", "value": "> 100", "unit": "µM"},
      {"measurement": "GI50", "setting": "MOLT-4 leukemia", "value": 2.78, "unit": "µM"},
      {"measurement": "TGI", "setting": "MOLT-4 leukemia", "value": "> 53.1", "unit": "µM"},
      {"measurement": "GI50", "setting": "SK-MEL-28 melanoma", "value": "> 22.3", "unit": "µM"},
      {"measurement": "TGI", "setting": "SK-MEL-28 melanoma", "value": "> 100", "unit": "µM"},
      {"measurement": "GI50", "setting": "LOX IMVI melanoma", "value": 2.62, "unit": "µM"},
      {"measurement": "TGI", "setting": "LOX IMVI melanoma", "value": 98.5, "unit": "µM"},
      {"measurement": "GI50", "setting": "HCT-116 colon", "value": 1.38, "unit": "µM"},
      {"measurement": "TGI", "setting": "HCT-116 colon", "value": "> 100", "unit": "µM"},
      {"measurement": "GI50", "setting": "SR leukemia", "value": 2.17, "unit": "µM"},
      {"measurement": "TGI", "setting": "SR leukemia", "value": "> 100", "unit": "µM"},
      {"measurement": "GI50", "setting": "UO-31 renal", "value": 3.38, "unit": "µM"},
      {"measurement": "TGI", "setting": "UO-31 renal", "value": "> 100", "unit": "µM"},
      {"measurement": "GI50", "setting": "A549 NSCLC", "value": 5.75, "unit": "µM"},
      {"measurement": "TGI", "setting": "A549 NSCLC", "value": "> 77.4", "unit": "µM"},
      {"measurement": "GI50", "setting": "HOP-62 NSCLC", "value": 8.71, "unit": "µM"},
      {"measurement": "TGI", "setting": "HOP-62 NSCLC", "value": "> 100", "unit": "µM"},
      {"measurement": "GI50", "setting": "MDA-MB-231 breast", "value": 4.11, "unit": "µM"},
      {"measurement": "TGI", "setting": "MDA-MB-231 breast", "value": "> 100", "unit": "µM"},
      {"measurement": "GI50", "setting": "NCI-H23 lung", "value": 4.61, "unit": "µM"},
      {"measurement": "TGI", "setting": "NCI-H23 lung", "value": "> 100", "unit": "µM"},
      {"measurement": "GI50", "setting": "SNB-19 CNS", "value": 5.63, "unit": "µM"},
      {"measurement": "TGI", "setting": "SNB-19 CNS", "value": "> 100", "unit": "µM"},
      {"measurement": "GI50", "setting": "PC-3 prostate", "value": 4.87, "unit": "µM"},
      {"measurement": "TGI", "setting": "PC-3 prostate", "value": "> 100", "unit": "µM"},
      {"measurement": "GI50", "setting": "UACC-62 melanoma", "value": 4.3, "unit": "µM"},
      {"measurement": "TGI", "setting": "UACC-62 melanoma", "value": "> 100", "unit": "µM"},
      {"measurement": "GI50", "setting": "MALME-3M melanoma", "value": 5.97, "unit": "µM"},
      {"measurement": "TGI", "setting": "MALME-3M melanoma", "value": "> 100", "unit": "µM"},
      {"measurement": "GI50", "setting": "OVCAR-8 ovarian", "value": 4.99, "unit": "µM"},
      {"measurement": "TGI", "setting": "OVCAR-8 ovarian", "value": "> 100", "unit": "µM"},
      {"measurement": "GI50", "setting": "786-0 renal", "value": 5.32, "unit": "µM"},
      {"measurement": "TGI", "setting": "786-0 renal", "value": "> 100", "unit": "µM"},
      {"measurement": "GI50", "setting": "OVCAR-4 ovarian", "value": "> 65.5", "unit": "µM"},
      {"measurement": "TGI", "setting": "OVCAR-4 ovarian", "value": "> 100", "unit": "µM"}
    ]}
  ]
}
